According to US20160030416A1, “METHODS OF TREATING B2-BRADYKININ RECEPTOR MEDIATED ANGIOEDEMA” (SHIRE HUMAN GENETIC THERAPIES, INC., priority 2013, published 2016):

Legend:
[1] = In vitro microsomal stability, mini-pig; format: in vitro ADME; conditions: Mini-Pig (Gotting), Male
Experimental: (§1) In vitro metabolic stability studies were performed to determine hepatic stability in vivo. CFMQ was incubated in liver microsomal preparations from mouse, rat, dog, mini-pig, and humans, as well as an additional study with monkey and human. CFMQ was incubated with human and animal liver microsomes at 0.3 mg/mL at 37° C. for 30 or 60 minutes. Additional reference compounds were incubated as controls. Following incubation, samples were analyzed by HPLC-MS/MS.

[2] = biological target: T1, μ (h) (MOP) (agonist site) (Homo sapiens, UniProt P35372); experiment: Off-target receptor binding: μ (MOP)
T1 construct: expressed in transfected cells; host or cells: CHO or HEK 293 (not assigned per receptor)
Experimental: To determine the affinity to the B2-bradykinin receptor, CFMQ was compared to a diverse set of receptors and reference agents in an in vitro assay using cells from rat heart, urinary bladder, cerebral cortex, as well as human recombinant cells (CHO and HEK 293) and other cell lines. Each assay included a ligand at a specific concentration (concentration ranging from 0.007-10 nM), in addition to a non-specific ligand (concentration ranging from […]) for incubation periods ranging from 15 minutes to 6 hours at 4°-37° C. The specific binding to the receptors was defined as the difference between the total binding and the nonspecific binding, determined in the presence of an excess of unlabeled CFMQ. The concentration causing a half-maximal inhibition of control specific binding (IC50 values) and inhibition constants (Ki) were determined, and each reference compound was within the accepted limits of the historic average (±0.5 log units).

[3] = Pharmacokinetics, single oral gavage, 2 formulations, Wistar and Sprague-Dawley rats; format: in vivo; conditions: for AUC(0-inf) / AUC(0-t) / Cmax / Tmax / half-life: rat, plasma, po
Experimental: Pharmacokinetics and gender differences were evaluated with 2 different formulations of CFMQ (HGT3711) in 2 different types of rat models. These attributes were investigated in a single oral gavage study. Male and female Wistar rats (n=3 per dose group) received CFMQ (HGT3711) at 15, […], and or 150 mg/kg. […] The two vehicle formulations evaluated were formulation 1: 10% N-methyl pyrrolidone (NMP): 10% Ethanol: 30% polyethylene glycol (PEG400): 50% […] (lauroyl polyoxylglycerides); and formulation 2: 10% NMP: 0% PEG400: 20% CREMOPHOR EL (Macrogolglycerol ricinoleate): 25% […] 44/14 (lauroyl polyoxylglycerides): 25% CAPROYOL 90 (Propylene Glycol Caprylate).
Blood samples were taken via cardiac puncture prior to administration and at 0.25 (15 min), 0.50 (30 min), 1, 2, 4, 8 and 24 hours post dose. Plasma concentrations of CFMQ (HGT3711) were determined by LC-MS/MS and nominal dosing concentrations were used in all calculations.

[4] = test system: plasma extravasation; experiment: Plasma extravasation (Evans blue in bladder), oral gavage, female WT mice; format: in vivo
Experimental: The efficacy of CFMQ (HGT3711) following orally administration was studied in female WT mice. Eight mice per group received either vehicle or CFMQ (HGT3711) at 1.0, 3.0, 10, or 30 mg/kg by oral gavage. An additional dose group received Firazyr® (icatibant-0.4 mg/kg) as a subcutaneous (SC) injection. Similar to the previous studies, inhibition of EB content in the dried bladder (μg EB per milligram of tissue weight) was utilized as measurement of efficacy.

[5] = In vitro microsomal stability, monkey; format: in vitro ADME; conditions: Monkey (Cynomolgus), Male
Experimental: as §1

[6] = female, Sprague-Dawley, 75 mg/kg, Formulation 1, S-D (Female)
[7] = female, Sprague-Dawley, 75 mg/kg, Formulation 2, S-D (Female)
[8] = female, Wistar, 15 mg/kg, Formulation 1, Wistar (Female)
[9] = female, Wistar, 15 mg/kg, Formulation 2, Wistar (Female)
[10] = female, Wistar, 75 mg/kg, Formulation 1, Wistar (Female)
[11] = female, Wistar, 75 mg/kg, Formulation 2, Wistar (Female)
[12] = female, Wistar, 150 mg/kg, Formulation 1, Wistar (Female)
[13] = female, Wistar, 150 mg/kg, Formulation 2, Wistar (Female)
[14] = male, Sprague-Dawley, 75 mg/kg, Formulation 1, S-D (Male)
[15] = male, Sprague-Dawley, 75 mg/kg, Formulation 2, S-D (Male)
[16] = male, Wistar, 15 mg/kg, Formulation 1, Wistar (Male)
[17] = male, Wistar, 15 mg/kg, Formulation 2, Wistar (Male)
[18] = male, Wistar, 75 mg/kg, Formulation 1, Wistar (Male)
[19] = male, Wistar, 75 mg/kg, Formulation 2, Wistar (Male)
[20] = male, Wistar, 150 mg/kg, Formulation 1, Wistar (Male)
[21] = male, Wistar, 150 mg/kg, Formulation 2, Wistar (Male)

T1 sequence (P35372 whole entry): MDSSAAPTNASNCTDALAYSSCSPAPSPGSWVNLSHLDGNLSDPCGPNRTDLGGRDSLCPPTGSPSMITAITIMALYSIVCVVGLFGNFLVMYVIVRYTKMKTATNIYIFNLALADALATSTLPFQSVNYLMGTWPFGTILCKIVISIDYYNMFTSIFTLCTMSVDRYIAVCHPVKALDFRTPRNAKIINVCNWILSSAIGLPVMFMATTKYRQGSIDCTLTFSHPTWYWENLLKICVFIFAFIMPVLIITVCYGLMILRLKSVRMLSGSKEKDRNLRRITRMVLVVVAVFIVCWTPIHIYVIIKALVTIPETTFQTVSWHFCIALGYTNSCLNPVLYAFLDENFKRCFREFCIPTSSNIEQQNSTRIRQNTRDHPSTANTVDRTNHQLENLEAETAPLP

Structure (SMILES): Cc1cc(Cl)c(COc2cccc3c(-n4cc(F)cn4)cc(C)nc23)c(Cn2cccc(C#N)c2=O)n1 [CFMQ, 1-((4-Chloro-3-(((4-(4-fluoro-1H-pyrazol-1-yl)-2-methylquinolin-8-yl)oxy)methyl)-6-methylpyridin-2-yl)methyl)-2-oxo-1,2-dihydropyridine-3-carbonitrile]
- % Remaining [30 minutes] ([1]; 30 minutes): 74%
- % Remaining [60 minutes] ([1]; 60 minutes): 58%
- IC50 [2]: 6.7 µM
- Ki [2]: 2.7 µM
- nH [2]: 1.0
- inhibition at 10 µM ([2]; CFMQ at 10 μM): 54%
- oral exposure in female rats compared to male rats ([3]; average dose normalized AUC values, both S-D and Wistar): 20-40 times
- AUC(0-inf) [3, 6]: 14300 ng·h/mL
- AUC(0-t) [3, 6]: 11900 ng·h/mL
- Cmax [3, 6]: 2280 ng/mL
- Tmax [3, 6]: 0.5 h
- half-life [3, 6]: 2.01 h
- AUC(0-inf) [3, 7]: 20800 ng·h/mL
- AUC(0-t) [3, 7]: 20600 ng·h/mL
- Cmax [3, 7]: 2180 ng/mL
- Tmax [3, 7]: 0.83 h
- half-life [3, 7]: 3.58 h
- AUC(0-inf) [3, 8]: 6650 ng·h/mL
- AUC(0-t) [3, 8]: 4660 ng·h/mL
- Cmax [3, 8]: 1140 ng/mL
- Tmax [3, 8]: 0.83 h
- half-life [3, 8]: 3.1 h
- AUC(0-inf) [3, 9]: 5810 ng·h/mL
- AUC(0-t) [3, 9]: 5210 ng·h/mL
- Cmax [3, 9]: 592 ng/mL
- Tmax [3, 9]: 3.33 h
- half-life [3, 9]: 6.08 h
- AUC(0-inf) [3, 10]: 11100 ng·h/mL
- AUC(0-t) [3, 10]: 11100 ng·h/mL
- Cmax [3, 10]: 2550 ng/mL
- Tmax [3, 10]: 0.58 h
- half-life [3, 10]: 3.13 h
- AUC(0-inf) [3, 11]: 11300 ng·h/mL
- AUC(0-t) [3, 11]: 10700 ng·h/mL
- Cmax [3, 11]: 2200 ng/mL
- Tmax [3, 11]: 0.75 h
- half-life [3, 11]: 3.12 h
- AUC(0-inf) [3, 12]: 9060 ng·h/mL
- AUC(0-t) [3, 12]: 8710 ng·h/mL
- Cmax [3, 12]: 1850 ng/mL
- Tmax [3, 12]: 0.33 h
- half-life [3, 12]: 5.42 h
- AUC(0-inf) [3, 13]: 6440 ng·h/mL
- AUC(0-t) [3, 13]: 6430 ng·h/mL
- Cmax [3, 13]: 1580 ng/mL
- Tmax [3, 13]: 0.33 h
- half-life [3, 13]: 2.64 h
- AUC(0-inf) [3, 14]: 435 ng·h/mL
- AUC(0-t) [3, 14]: 410 ng·h/mL
- Cmax [3, 14]: 187 ng/mL
- Tmax [3, 14]: 0.5 h
- half-life [3, 14]: 1.96 h
- AUC(0-inf) [3, 15]: 745 ng·h/mL
- AUC(0-t) [3, 15]: 673 ng·h/mL
- Cmax [3, 15]: 191 ng/mL
- Tmax [3, 15]: 0.67 h
- half-life [3, 15]: 3.43 h
- AUC(0-inf) [3, 16]: 229 ng·h/mL
- AUC(0-t) [3, 16]: 218 ng·h/mL
- Cmax [3, 16]: 77.4 ng/mL
- Tmax [3, 16]: 0.5 h
- half-life [3, 16]: 1.67 h
- AUC(0-inf) [3, 17]: 155 ng·h/mL
- AUC(0-t) [3, 17]: 175 ng·h/mL
- Cmax [3, 17]: 34.7 ng/mL
- Tmax [3, 17]: 0.83 h
- half-life [3, 17]: 1.74 h
- AUC(0-inf) [3, 18]: 282 ng·h/mL
- AUC(0-t) [3, 18]: 243 ng·h/mL
- Cmax [3, 18]: 155 ng/mL
- Tmax [3, 18]: 0.25 h
- half-life [3, 18]: 4.28 h
- AUC(0-inf) [3, 19]: 261 ng·h/mL
- AUC(0-t) [3, 19]: 219 ng·h/mL
- Cmax [3, 19]: 94.9 ng/mL
- Tmax [3, 19]: 0.5 h
- half-life [3, 19]: 3.35 h
- AUC(0-inf) [3, 20]: 397 ng·h/mL
- AUC(0-t) [3, 20]: 309 ng·h/mL
- Cmax [3, 20]: 277 ng/mL
- Tmax [3, 20]: 0.25 h
- half-life [3, 20]: 1.63 h
- AUC(0-inf) [3, 21]: 260 ng·h/mL
- AUC(0-t) [3, 21]: 199 ng·h/mL
- Cmax [3, 21]: 119 ng/mL
- Tmax [3, 21]: 0.25 h
- half-life [3, 21]: 2.43 h
- adverse reactions ([3]; single oral gavage 15-150 mg/kg, rats): No adverse reactions were observed
- increase in exposure, females compared to males ([3]; within both formulations): > 5 fold
- plasma value ([4]; oral 10.0 mg/kg): 267 nM
- inhibition of EB accumulation in the bladder ([4]; oral 10 mg/kg, female WT mice): ~100%
- efficacy compared with 0.4 mg/kg SC Firazyr ([4]; oral 10.0 mg/kg, female WT mice): equally effective
- inhibition of EB accumulation in the bladder ([4]; oral 30 mg/kg, female WT mice): ~100%
- minimally-effective dose (MED) ([4]; oral gavage, female WT mice): 3.0 mg/kg
- % Remaining [30 minutes] ([5]; 30 minutes): 32%
- % Remaining [60 minutes] ([5]; 60 minutes): 7%
